In patent US20240116985A1, “STAPLED PEPTIDES AND METHODS THEREOF” (priority 2020, published 2024):

Biological target: T1, full-length beta-Catenin (Uniprot ID P35222) (Homo sapiens, UniProt P35222)
T1 construct: 10 nM full-length beta-Catenin (Uniprot ID P35222)
T1 sequence (P35222 1-781): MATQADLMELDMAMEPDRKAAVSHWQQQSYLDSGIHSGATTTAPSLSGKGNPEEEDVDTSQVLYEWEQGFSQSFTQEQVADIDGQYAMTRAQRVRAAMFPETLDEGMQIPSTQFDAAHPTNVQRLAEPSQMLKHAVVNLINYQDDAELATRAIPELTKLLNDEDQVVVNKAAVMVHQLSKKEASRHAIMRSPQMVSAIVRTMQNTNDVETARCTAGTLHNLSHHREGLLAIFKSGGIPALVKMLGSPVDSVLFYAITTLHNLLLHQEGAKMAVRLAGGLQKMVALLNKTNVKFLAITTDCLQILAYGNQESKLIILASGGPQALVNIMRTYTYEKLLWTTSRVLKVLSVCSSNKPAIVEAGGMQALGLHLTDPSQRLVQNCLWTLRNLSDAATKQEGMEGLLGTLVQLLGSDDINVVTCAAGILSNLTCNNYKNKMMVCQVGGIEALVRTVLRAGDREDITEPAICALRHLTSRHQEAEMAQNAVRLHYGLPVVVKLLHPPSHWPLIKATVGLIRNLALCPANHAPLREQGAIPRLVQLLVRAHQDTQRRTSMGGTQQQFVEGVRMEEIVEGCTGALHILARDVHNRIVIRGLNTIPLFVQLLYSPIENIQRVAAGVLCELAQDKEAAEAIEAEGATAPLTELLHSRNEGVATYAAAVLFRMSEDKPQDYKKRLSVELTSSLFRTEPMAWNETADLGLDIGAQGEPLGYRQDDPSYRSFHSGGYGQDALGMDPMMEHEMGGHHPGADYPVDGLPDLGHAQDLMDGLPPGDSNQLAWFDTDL
Assay: Fluorescence polarization IC50 (beta-catenin / 5FAM-TCF4 10-53 competition)
Type: binding
Conditions: fluorescence polarization; read-out: beta-Catenin FP IC50

| IC50 | Compound |
| --- | --- |
| 1080 nM | CC(=O)N1CCC[C@]12CC=CCCCC1(CCCC=CCCCOC(=O)N3CC[C@@](C(=O)N[C@@H](Cc4ccccc4)C(=O)N[C@@H](Cc4csc5ccccc45)C(=O)N[C@@H](CCC(N)=O)C(N)=O)(C3)NC(=O)[C@H](Cc3ccccc3)NC(=O)[C@H](Cc3ccccc3)NC(=O)[C@H](C)NC(=O)[C@H](CCCCNC(C)C)NC(=O)[C@H]([C@@H](C)O)NC(=O)[C@H](CC(=O)O)NC1=O)NC(=O)[C@H](CC(C)(C)C)NC(=O)[C@H](CC(N)=O)NC2=O (stereo partly drawn) [I-1599, Ac-PL3-Asn-Npg-B5-Asp-Thr-iPrLys-Ala-Phe-Phe-PyrS2-Phe-BztA-Gln-NH2] |
| 4290 nM | CC(=O)N1CCC[C@]12CC=CCCCC1(CCCC=CCCCOC(=O)N3CC[C@@](C(=O)N[C@@H](Cc4ccccc4)C(=O)N[C@@H](Cc4csc5ccccc45)C(=O)N[C@@H](CCC(N)=O)C(N)=O)(C3)NC(=O)[C@H](Cc3c[nH]c4ccccc34)NC(=O)[C@H](Cc3ccccc3)NC(=O)[C@H](C)NC(=O)[C@H](CCCCNC(C)C)NC(=O)[C@H]([C@@H](C)O)NC(=O)[C@H](CC(=O)O)NC1=O)NC(=O)[C@H](CC(C)(C)C)NC(=O)[C@H](CC(N)=O)NC2=O (stereo partly drawn) [I-1600, Ac-PL3-Asn-Npg-B5-Asp-Thr-iPrLys-Ala-Phe-Trp-PyrS2-Phe-BztA-Gln-NH2] |
| 2020 nM | CC(=O)N1CCC[C@]12CC=CCCCC1(CCCC=CCCCOC(=O)N3CC[C@@](C(=O)N[C@@H](Cc4ccccc4)C(=O)N[C@@H](Cc4csc5ccccc45)C(=O)N[C@@H](CCC(N)=O)C(N)=O)(C3)NC(=O)[C@H](CO)NC(=O)[C@H](Cc3ccccc3)NC(=O)[C@H](C)NC(=O)[C@H](CCCCNC(C)C)NC(=O)[C@H]([C@@H](C)O)NC(=O)[C@H](CC(=O)O)NC1=O)NC(=O)[C@H](CC(C)(C)C)NC(=O)[C@H](CC(N)=O)NC2=O (stereo partly drawn) [I-1601, Ac-PL3-Asn-Npg-B5-Asp-Thr-iPrLys-Ala-Phe-Ser-PyrS2-Phe-BztA-Gln-NH2] |
| 123 nM | CC(=O)N1CCC[C@]12CCCCCCC1(CCCCCCCCOC(=O)N3CC[C@@](C(=O)N[C@@H](Cc4ccccc4C(F)(F)F)C(=O)N[C@@H](Cc4csc5ccccc45)C(=O)N[C@@H](CCC(N)=O)C(N)=O)(C3)NC(=O)[C@H](CC(C)C)NC(=O)[C@H](Cc3ccccc3)NC(=O)[C@H](C)NC(=O)[C@H](C)NC(=O)[C@H](Cc3cccc(C(=O)O)c3)NC(=O)[C@H](CC(=O)O)NC1=O)NC(=O)[C@H](CC(C)(C)C)NC(=O)[C@H](CC(=O)O)NC2=O (stereo partly drawn) [I-1604, Ac-PL3-Asp-Npg-B5-Asp-3COOHF-Ala-Ala-Phe-Leu-PyrS2-2F3MeF-BztA-Gln-NH2] |
| 214 nM | CC(=O)N1CCC[C@]12CCCCCCC1(CCCCCCCCOC(=O)N3CC[C@@](C(=O)N[C@@H](Cc4ccsc4)C(=O)N[C@@H](Cc4csc5ccccc45)C(=O)N[C@@H](CCC(N)=O)C(N)=O)(C3)NC(=O)[C@H](CC(C)C)NC(=O)[C@H](Cc3ccccc3)NC(=O)[C@H](C)NC(=O)[C@H](C)NC(=O)[C@H](CN(CC(=O)O)CC(F)(F)F)NC(=O)[C@H](CC(=O)O)NC1=O)NC(=O)[C@H](CC(C)(C)C)NC(=O)[C@H](CC(=O)O)NC2=O (stereo partly drawn) [I-1605, Ac-PL3-Asp-Npg-B5-Asp-TfeGA-Ala-Ala-Phe-Leu-PyrS2-3Thi-BztA-Gln-NH2] |
| 107 nM | CC(=O)N1CCC[C@]12CCCCCCC1(CCCCCCCCOC(=O)N3CC[C@@](C(=O)N[C@@H](Cc4ccccc4Cl)C(=O)N[C@@H](Cc4csc5ccccc45)C(=O)N[C@@H](CCC(N)=O)C(N)=O)(C3)NC(=O)[C@H]([C@@H](C)O)NC(=O)[C@H](Cc3ccccc3)NC(=O)[C@H](C)NC(=O)[C@H](C)NC(=O)[C@H](CN(CC(=O)O)CC(F)(F)F)NC(=O)[C@H](CC(=O)O)NC1=O)NC(=O)[C@H](CC(C)(C)C)NC(=O)[C@H](CC(=O)O)NC2=O (stereo partly drawn) [I-1606, Ac-PL3-Asp-Npg-B5-Asp-TfeGA-Ala-Ala-Phe-Thr-PyrS2-2C1F-BztA-Gln-NH2] |
| 759 nM | CC(=O)N1CCC[C@]12CC=CCCCC1(CCCC=CCCCCCC[C@@](C)(C(=O)N[C@@H](Cc3ccsc3)C(=O)N[C@@H](Cc3csc4ccccc34)C(=O)N[C@@H](CCC(N)=O)C(N)=O)NC(=O)[C@H](CC(N)=O)NC(=O)[C@H](Cc3ccccc3)NC(=O)[C@H](C)NC(=O)[C@H](C)NC(=O)[C@H]([C@@H](C)O)NC(=O)[C@H](CC(N)=O)NC1=O)NC(=O)[C@H](CC(C)(C)C)NC(=O)[C@H](CC(=O)O)NC2=O (stereo partly drawn) [I-1617, Ac-PL3-Asp-Npg-B5-Asn-Thr-Ala-Ala-Phe-Asn-S8-3Thi-BztA-Gln-NH2] |
| 1290 nM | CCCC[C@@H]1NC(=O)[C@H](Cc2ccccc2)NC(=O)[C@H](C)NC(=O)[C@H](C)NC(=O)[C@H]([C@@H](C)O)NC(=O)[C@H](CC(N)=O)NC(=O)C2(CCCC=CCCCOC(=O)N3CC[C@@](C(=O)N[C@@H](Cc4ccsc4)C(=O)N[C@@H](Cc4csc5ccccc45)C(=O)N[C@@H](CCC(N)=O)C(N)=O)(C3)NC1=O)CCCC=CC[C@]1(CCCN1C(C)=O)C(=O)N[C@@H](CC(=O)O)C(=O)N[C@@H](CC(C)(C)C)C(=O)N2 (stereo partly drawn) [I-1619, Ac-PL3-Asp-Npg-B5-Asn-Thr-Ala-Ala-Phe-nLeu-PyrS2-3Thi-BztA-Gln-NH2] |
| 2060 nM | CC(=O)N1CCC[C@]12CC=CCCCC1(CCCC=CCCCOC(=O)N3CC[C@@](C(=O)N[C@@H](Cc4ccsc4)C(=O)N[C@@H](Cc4csc5ccccc45)C(=O)N[C@@H](CCC(N)=O)C(N)=O)(C3)NC(=O)[C@H](CCC(C)C)NC(=O)[C@H](Cc3ccccc3)NC(=O)[C@H](C)NC(=O)[C@H](C)NC(=O)[C@H]([C@@H](C)O)NC(=O)[C@H](CC(N)=O)NC1=O)NC(=O)[C@H](CC(C)(C)C)NC(=O)[C@H](CC(=O)O)NC2=O (stereo partly drawn) [I-1620, Ac-PL3-Asp-Npg-B5-Asn-Thr-Ala-Ala-Phe-hLeu-PyrS2-3Thi-BztA-Gln-NH2] |
| 266 nM | CC(=O)N1CCC[C@]12CC=CCCCC1(CCCC=CCCCOC(=O)N3CC[C@@](C(=O)N[C@@H](Cc4ccsc4)C(=O)N[C@@H](Cc4csc5ccccc45)C(=O)N[C@@H](CCC(N)=O)C(N)=O)(C3)NC(=O)[C@H]([C@@H](C)O)NC(=O)[C@H](Cc3ccccc3)NC(=O)[C@H](C)NC(=O)[C@H](C)NC(=O)[C@H]([C@@H](C)O)NC(=O)[C@H](CC(N)=O)NC1=O)NC(=O)[C@H](CC(C)(C)C)NC(=O)[C@H](CC(=O)O)NC2=O (stereo partly drawn) [I-1621, Ac-PL3-Asp-Npg-B5-Asn-Thr-Ala-Ala-Phe-Thr-PyrS2-3Thi-BztA-Gln-NH2] |
| 30 nM | CCC(C)N(CC(=O)O)C[C@@H]1NC(=O)[C@H](CC(=O)O)NC(=O)C2(CCCC=CCCCOC(=O)N3CC[C@@](C(=O)N[C@@H](Cc4ccccc4Cl)C(=O)N[C@@H](Cc4csc5ccccc45)C(=O)N[C@@H](CCC(N)=O)C(N)=O)(C3)NC(=O)[C@H](CC(N)=O)NC(=O)[C@H](Cc3ccccc3)NC(=O)[C@H](C)NC(=O)[C@H](C)NC1=O)CCCC=CC[C@]1(CCCN1C(C)=O)C(=O)N[C@@H](CC(=O)O)C(=O)N[C@@H](CC(C)(C)C)C(=O)N2 (stereo partly drawn) [I-1623, Ac-PL3-Asp-Npg-B5-Asp-[sBu]GA-Ala-Ala-Phe-Asn-PyrS2-2C1F-BztA-Gln-NH2] |
| 47.5 nM | CC(=O)N1CCC[C@]12CC=CCCCC1(CCCC=CCCCCCC[C@@](C)(C(=O)N[C@@H](Cc3ccsc3)C(=O)N[C@@H](Cc3csc4ccccc34)C(=O)N[C@@H](CCC(N)=O)C(N)=O)NC(=O)[C@H](CC(N)=O)NC(=O)[C@H](Cc3ccccc3)NC(=O)[C@H](C)NC(=O)[C@H](C)NC(=O)[C@H](CN(CC(=O)O)Cc3c(F)c(F)c(F)c(F)c3F)NC(=O)[C@H](CC(=O)O)NC1=O)NC(=O)[C@H](CC(C)(C)C)NC(=O)[C@H](CC(=O)O)NC2=O (stereo partly drawn) [I-1624, Ac-PL3-Asp-Npg-B5-Asp-[Pfbn]GA-Ala-Ala-Phe-Asn-S8-3Thi-BztA-Gln-NH2] |
| 721 nM | CCC(C)N(CC(=O)O)C[C@@H]1NC(=O)[C@H](CC(=O)O)NC(=O)C2(CCCC=CCCCCCC[C@@](C)(C(=O)N[C@@H](Cc3ccsc3)C(=O)N[C@@H](Cc3csc4ccccc34)C(=O)N[C@@H](CCC(N)=O)C(N)=O)NC(=O)[C@H](CC(N)=O)NC(=O)[C@H](Cc3ccccc3)NC(=O)[C@H](C)NC(=O)[C@H](C)NC1=O)CCCC=CC[C@]1(CCCN1C(C)=O)C(=O)N[C@@H](CC(=O)O)C(=O)N[C@@H](CC(C)(C)C)C(=O)N2 (stereo partly drawn) [I-1626, Ac-PL3-Asp-Npg-B5-Asp-[sBu]GA-Ala-Ala-Phe-Asn-S8-3Thi-BztA-Gln-NH2] |
| 8 nM | CC(=O)N1CCC[C@]12CC=CCCCC1(CCCC=CCCCOC(=O)N3CC[C@@](C(=O)N[C@@H](Cc4ccsc4)C(=O)N[C@@H](Cc4csc5ccccc45)C(=O)N[C@@H](CCC(N)=O)C(N)=O)(C3)NC(=O)[C@H](CC(N)=O)NC(=O)[C@H](Cc3ccccc3)NC(=O)[C@H](C)NC(=O)[C@H](C)NC(=O)[C@H](CN(CCC(F)(F)F)CC(=O)O)NC(=O)[C@H](CC(=O)O)NC1=O)NC(=O)[C@H](CC(C)(C)C)NC(=O)[C@H](CC(=O)O)NC2=O (stereo partly drawn) [I-1640, Ac-PL3-Asp-Npg-B5-Asp-[Tfp]GA-Ala-Ala-Phe-Asn-PyrS2-3Thi-BztA-Gln-NH2] |
